The values below come from PubChem BioAssay AID330 (DTP/NCI, 2004).

The assay relates to P388 leukemia ip, CD2F1 mice, survival T/C. Briefly: NCI In Vivo Anticancer Drug Screen. Data for tumor model P388 Leukemia (intraperitoneal) in CD2F1 (CDF1) mice. Particulars: endpoint: median survival time, higher = longer survival. The method in brief: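 Mice carrying the transplanted tumor received test compound or vehicle. Survival was recorded in each group, and the value is the treated-group measurement divided by that of the vehicle-treated control group.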

[1] abbreviates: dose: 60.0 mg/kg/injection, schedule: Q01DX005 (ip), vehicle: Klucel (hydroxypropylcellulose) (HPC).
[2] abbreviates: dose: 120.0 mg/kg/injection, schedule: Q01DX005 (ip), vehicle: Klucel (hydroxypropylcellulose) (HPC).
[3] abbreviates: dose: 240.0 mg/kg/injection, schedule: Q01DX005 (ip), vehicle: Klucel (hydroxypropylcellulose) (HPC).
Where [4] appears, read: dose: 50.0 mg/kg/injection, schedule: Q01DX005 (ip), vehicle: saline with Tween-80.
[5] abbreviates: dose: 100.0 mg/kg/injection, schedule: Q01DX005 (ip), vehicle: saline with Tween-80.
Where [6] appears, read: dose: 200.0 mg/kg/injection, schedule: Q01DX005 (ip), vehicle: saline with Tween-80.
Setting [7] is: dose: 100.0 mg/kg/injection, schedule: Q01DX009 (ip), vehicle: saline with Tween-80.
Where [8] appears, read: dose: 200.0 mg/kg/injection, schedule: Q01DX009 (ip), vehicle: saline with Tween-80.
[9] abbreviates: dose: 400.0 mg/kg/injection, schedule: Q01DX009 (ip), vehicle: saline with Tween-80.
Setting [10] is: dose: 200.0 mg/kg/injection, schedule: Q01DX005 (ip), vehicle: Klucel (hydroxypropylcellulose) (HPC).

Several values for one entry are separate records, joined by “and”; a condition that tells them apart may be missing. Identical values can stand only once. Inconclusive results and toxic doses are left out.

On to `COc1ccc(Cl)c2c1C(=O)C1C(=O)C3C(O)=C(C(=O)NC(C)(C)C)C(=O)C(NC(=O)c4ccccc4)C3CC1C2` (stereo not drawn), for which the T/C is, setting by setting: under setting [1], 97 % of control; under setting [2], 116 % of control; under setting [3], 190 % of control.

Consider `O=C(O)c1cn(O)ccc1=O`, for which the T/C runs as follows: under setting [4], 94 % of control; under setting [5], 100 % of control; under setting [6], 97 % of control.

With `COC(=O)c1nc(N)nc(C(=O)OC)c1C(=O)c1ccc(F)cc1`, the T/C is 101 % of control under setting [1] and 102 % of control under setting [2].

As for `COc1cccc2c1C(=O)c1c(O)c3c(c(O)c1C2=O)CC(O)(C(=O)COc1ccccc1)CC3O` (stereo not drawn), the T/C was 108 % of control (dose: 1.56 mg/kg/injection, schedule: Q01DX009 (ip), vehicle: other); 106 % of control (dose: 3.13 mg/kg/injection, schedule: Q01DX009 (ip), vehicle: other); 105 % of control (dose: 6.25 mg/kg/injection, schedule: Q01DX009 (ip), vehicle: other); 97 % of control (dose: 12.5 mg/kg/injection, schedule: Q01DX009 (ip), vehicle: other); 91 % of control (dose: 25.0 mg/kg/injection, schedule: Q01DX009 (ip), vehicle: other).

In the case of `O=S(=O)(NCCSSCCNS(=O)(=O)c1ccc(Cl)cc1)c1ccc(Cl)cc1`, the T/C is 92 % of control (dose: 50.0 mg/kg/injection, schedule: Q01DX009 (ip), vehicle: Klucel (hydroxypropylcellulose) (HPC)); 91 % of control (dose: 100.0 mg/kg/injection, schedule: Q01DX009 (ip), vehicle: Klucel (hydroxypropylcellulose) (HPC)); 88 % of control (dose: 200.0 mg/kg/injection, schedule: Q01DX009 (ip), vehicle: Klucel (hydroxypropylcellulose) (HPC)).

On to `Cc1ncc([N+](=O)[O-])n1CCO`, for which the T/C was 112 % of control (dose: 16.0 mg/kg/injection, schedule: Q01DX009 (ip), vehicle: saline with Tween-80); 108 % of control (dose: 32.0 mg/kg/injection, schedule: Q01DX009 (ip), vehicle: saline with Tween-80); 98 % of control (dose: 50.0 mg/kg/injection, schedule: Q01DX009 (ip), vehicle: saline with Tween-80); 102 % of control and 108 % of control (dose: 64.0 mg/kg/injection, schedule: Q01DX009 (ip), vehicle: saline with Tween-80); 118 % of control under setting [7]; 100 % of control and 109 % of control (dose: 128.0 mg/kg/injection, schedule: Q01DX009 (ip), vehicle: saline with Tween-80). The T/C runs as follows: under setting [8], 107 % of control; (dose: 250.0 mg/kg/injection, schedule: Q01DX001 (ip), vehicle: saline with Tween-80) 103 % of control; (dose: 256.0 mg/kg/injection, schedule: Q01DX009 (ip), vehicle: saline with Tween-80) 108 % of control; (dose: 360.0 mg/kg/injection, schedule: Q01DX001 (ip), vehicle: saline with Tween-80) 100 % of control and 103 % of control; under setting [9], 111 % of control; (dose: 500.0 mg/kg/injection, schedule: Q01DX001 (ip), vehicle: saline with Tween-80) 103 % of control. Also, the T/C was 100 % of control (dose: 512.0 mg/kg/injection, schedule: Q01DX009 (ip), vehicle: saline with Tween-80); 100 % of control and 97 % of control (dose: 600.0 mg/kg/injection, schedule: Q01DX001 (ip), vehicle: saline with Tween-80); 102 % of control and 104 % of control and 101 % of control (dose: 1000.0 mg/kg/injection, schedule: Q01DX001 (ip), vehicle: saline with Tween-80); 99 % of control (dose: 2000.0 mg/kg/injection, schedule: Q01DX001 (ip), vehicle: saline with Tween-80).

In the case of `CN(C)C1C(=O)C(C(=O)NCNC2C(=O)N3C2SC(C)(C)C3C(=O)O)=C(O)C2(O)C(=O)C3=C(O)c4c(O)cccc4C(C)(O)C3CC12` (stereo not drawn), the T/C runs as follows: under setting [4], 100 % of control; under setting [5], 104 % of control; under setting [6], 90 % of control.

Turning to `CSC1(CCC#N)C(=O)Nc2ccccc21` (stereo not drawn), the T/C was 102 % of control (dose: 200.0 mg/kg/injection, schedule: Q04DX003 (ip), vehicle: saline with Tween-80) and 108 % of control (dose: 400.0 mg/kg/injection, schedule: Q04DX003 (ip), vehicle: saline with Tween-80).

`Cc1ccc(S(=O)(=O)ONNc2nccc3ccccc23)cc1`: the T/C is 103 % of control (dose: 100.0 mg/kg/injection, schedule: Q04DX002 (ip), vehicle: saline); 96 % of control (dose: 200.0 mg/kg/injection, schedule: Q04DX002 (ip), vehicle: saline); 97 % of control (dose: 400.0 mg/kg/injection, schedule: Q04DX002 (ip), vehicle: saline).

For the compound `CCCn1c(O)c(C=N)c(=O)n(CCC)c1=O`, the T/C is 95 % of control under setting [7], 100 % of control under setting [8] and 100 % of control under setting [9].

As to `CC(C)(C)c1ccc(C(=O)N2CCOC23CCCCC3)cc1`, the T/C (dose: 50.0 mg/kg/injection, schedule: Q01DX005 (ip), vehicle: Klucel (hydroxypropylcellulose) (HPC)) was 105 % of control; the T/C (dose: 100.0 mg/kg/injection, schedule: Q01DX005 (ip), vehicle: Klucel (hydroxypropylcellulose) (HPC)) is 96 % of control; the T/C under setting [10] is 96 % of control.

Take `O=C(O)CCCCCCCCCOC(C[N+](=O)[O-])C(Cl)(Cl)Cl` (stereo not drawn): the T/C by setting is: (dose: 50.0 mg/kg/injection, schedule: Q01DX009 (ip), vehicle: other) 102 % of control; (dose: 100.0 mg/kg/injection, schedule: Q01DX009 (ip), vehicle: other) 103 % of control; (dose: 200.0 mg/kg/injection, schedule: Q01DX009 (ip), vehicle: other) 113 % of control.

`CC(=O)N1c2ccccc2C23CCN(C)CC4C(C)OCC(C4CC2=O)C13` (stereo not drawn): the T/C was 100 % of control (dose: 2.0 mg/kg/injection, schedule: Q01DX009 (ip), vehicle: Klucel (hydroxypropylcellulose) (HPC)); 95 % of control (dose: 4.0 mg/kg/injection, schedule: Q01DX009 (ip), vehicle: Klucel (hydroxypropylcellulose) (HPC)); 98 % of control (dose: 8.0 mg/kg/injection, schedule: Q01DX009 (ip), vehicle: Klucel (hydroxypropylcellulose) (HPC)); 100 % of control (dose: 16.0 mg/kg/injection, schedule: Q01DX009 (ip), vehicle: Klucel (hydroxypropylcellulose) (HPC)); 100 % of control (dose: 32.0 mg/kg/injection, schedule: Q01DX009 (ip), vehicle: Klucel (hydroxypropylcellulose) (HPC)).

Regarding `O=C(O)c1ccc(-c2c3ccc(=O)cc-3oc3cc(O)ccc23)cc1`, the T/C reads like this: under setting [1], 100 % of control; under setting [2], 97 % of control; under setting [3], 100 % of control.

For the compound `CC(CCC(=O)O)(c1cc(Br)c(O)c(Br)c1)c1cc(Br)c(O)c(Br)c1`, the T/C was 100 % of control (dose: 100.0 mg/kg/injection, schedule: Q04DX003 (ip), vehicle: other); 100 % of control (dose: 200.0 mg/kg/injection, schedule: Q04DX003 (ip), vehicle: other); 100 % of control (dose: 400.0 mg/kg/injection, schedule: Q04DX003 (ip), vehicle: other).

In the case of `O=C(O)c1nn(-c2ccccc2-c2n[nH]c(=O)[nH]c2=O)c(=O)[nH]c1=O`, the T/C is, setting by setting: under setting [4], 101 % of control; under setting [5], 90 % of control; under setting [6], 95 % of control.

In the case of `C=Cc1cc(OC)c2c(c1)c(=O)oc1c2cc(OC)c2c(O)ccc(C3OC(C(C)O)C(O)C3O)c21` (stereo not drawn), the T/C (dose: 2.0 mg/kg/injection, schedule: Q04DX003 (ip), vehicle: DMSO) was 108 % of control; the T/C (dose: 4.0 mg/kg/injection, schedule: Q04DX003 (ip), vehicle: DMSO) is 114 % of control; the T/C (dose: 8.0 mg/kg/injection, schedule: Q04DX003 (ip), vehicle: DMSO) is 123 % of control; the T/C (dose: 15.0 mg/kg/injection, schedule: Q01DX005 (ip), vehicle: Klucel (hydroxypropylcellulose) (HPC)) is 119 % of control; the T/C (dose: 16.0 mg/kg/injection, schedule: Q04DX003 (ip), vehicle: DMSO) is 155 % of control; the T/C (dose: 30.0 mg/kg/injection, schedule: Q01DX005 (ip), vehicle: Klucel (hydroxypropylcellulose) (HPC)) was 107 % of control. For the same compound, the T/C (dose: 32.0 mg/kg/injection, schedule: Q04DX003 (ip), vehicle: DMSO) was 155 % of control; the T/C under setting [1] was 120 % of control; the T/C under setting [10] is 157 % of control; the T/C (dose: 400.0 mg/kg/injection, schedule: Q01DX005 (ip), vehicle: Klucel (hydroxypropylcellulose) (HPC)) was 98 % of control.
